This note sets out measurements from ChEMBL document CHEMBL3596138, “A double effect molecular switch leads to a novel potent negative allosteric modulator of metabotropic glutamate receptor 5” (Medchemcomm, 2014).

Assay [1] concerns the target Metabotropic glutamate receptor 4 (Rattus norvegicus) (UniProt P31423). As to conditions: HEK293; call rule not given here.
The target in assay [2] is Metabotropic glutamate receptor 5 (Rattus norvegicus, UniProt P31424). Description: Negative allosteric modulator activity at rat mGlu5 receptor expressed in HEK293 cells assessed as effect on quisqualate-induced inositol phosphate accumulation incubated for 30 mins by florescence assay. Type of assay: functional, cell-based.
The target of assay [3] is Metabotropic glutamate receptor 4 (Rattus norvegicus, UniProt P31423). Description: Positive allosteric modulator activity at rat mGlu4 receptor expressed in HEK293 cells assessed as effect on L-AP4-induced inositol phosphate accumulation incubated for 30 mins by florescence assay. Type of assay: functional, cell-based.
Assay [4] has as its target Metabotropic glutamate receptor 5 (Rattus norvegicus) (UniProt P31424). As to conditions: HEK293.
Description: Agonist activity at rat mGlu5 receptor expressed in HEK293 cells by inositol phosphate accumulation assay
The target is the same in assay [5]. Description: Potency index, ratio of IC50 for MPEP to IC50 for test compound for negative allosteric modulator activity at rat mGlu5 receptor expressed in HEK293 cells. Type of assay: cell-based.

Chain of Metabotropic glutamate receptor 4 (P31423 whole entry): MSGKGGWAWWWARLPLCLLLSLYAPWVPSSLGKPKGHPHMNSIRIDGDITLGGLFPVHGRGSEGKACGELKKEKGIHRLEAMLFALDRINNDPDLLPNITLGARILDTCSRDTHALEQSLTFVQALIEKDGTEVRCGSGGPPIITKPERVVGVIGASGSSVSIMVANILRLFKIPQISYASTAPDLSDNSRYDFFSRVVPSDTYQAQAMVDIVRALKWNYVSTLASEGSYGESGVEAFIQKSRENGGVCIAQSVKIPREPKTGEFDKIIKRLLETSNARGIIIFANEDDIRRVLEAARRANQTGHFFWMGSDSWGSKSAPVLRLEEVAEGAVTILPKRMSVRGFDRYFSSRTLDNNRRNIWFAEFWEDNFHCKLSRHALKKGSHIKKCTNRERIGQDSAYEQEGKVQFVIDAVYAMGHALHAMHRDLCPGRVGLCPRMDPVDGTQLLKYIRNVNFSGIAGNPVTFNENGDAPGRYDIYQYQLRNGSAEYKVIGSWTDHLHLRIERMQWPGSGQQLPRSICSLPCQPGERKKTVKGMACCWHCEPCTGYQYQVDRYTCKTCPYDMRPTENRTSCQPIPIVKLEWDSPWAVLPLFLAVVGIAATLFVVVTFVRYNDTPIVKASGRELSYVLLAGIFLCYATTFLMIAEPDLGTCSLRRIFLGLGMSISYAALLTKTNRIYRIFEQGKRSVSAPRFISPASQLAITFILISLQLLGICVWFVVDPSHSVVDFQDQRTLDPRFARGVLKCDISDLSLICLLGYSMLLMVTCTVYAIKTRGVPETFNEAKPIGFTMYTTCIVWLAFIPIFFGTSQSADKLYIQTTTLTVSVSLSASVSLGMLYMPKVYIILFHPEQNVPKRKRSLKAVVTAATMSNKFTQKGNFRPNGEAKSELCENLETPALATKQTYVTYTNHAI
Chain of Metabotropic glutamate receptor 5 (P31424 whole entry): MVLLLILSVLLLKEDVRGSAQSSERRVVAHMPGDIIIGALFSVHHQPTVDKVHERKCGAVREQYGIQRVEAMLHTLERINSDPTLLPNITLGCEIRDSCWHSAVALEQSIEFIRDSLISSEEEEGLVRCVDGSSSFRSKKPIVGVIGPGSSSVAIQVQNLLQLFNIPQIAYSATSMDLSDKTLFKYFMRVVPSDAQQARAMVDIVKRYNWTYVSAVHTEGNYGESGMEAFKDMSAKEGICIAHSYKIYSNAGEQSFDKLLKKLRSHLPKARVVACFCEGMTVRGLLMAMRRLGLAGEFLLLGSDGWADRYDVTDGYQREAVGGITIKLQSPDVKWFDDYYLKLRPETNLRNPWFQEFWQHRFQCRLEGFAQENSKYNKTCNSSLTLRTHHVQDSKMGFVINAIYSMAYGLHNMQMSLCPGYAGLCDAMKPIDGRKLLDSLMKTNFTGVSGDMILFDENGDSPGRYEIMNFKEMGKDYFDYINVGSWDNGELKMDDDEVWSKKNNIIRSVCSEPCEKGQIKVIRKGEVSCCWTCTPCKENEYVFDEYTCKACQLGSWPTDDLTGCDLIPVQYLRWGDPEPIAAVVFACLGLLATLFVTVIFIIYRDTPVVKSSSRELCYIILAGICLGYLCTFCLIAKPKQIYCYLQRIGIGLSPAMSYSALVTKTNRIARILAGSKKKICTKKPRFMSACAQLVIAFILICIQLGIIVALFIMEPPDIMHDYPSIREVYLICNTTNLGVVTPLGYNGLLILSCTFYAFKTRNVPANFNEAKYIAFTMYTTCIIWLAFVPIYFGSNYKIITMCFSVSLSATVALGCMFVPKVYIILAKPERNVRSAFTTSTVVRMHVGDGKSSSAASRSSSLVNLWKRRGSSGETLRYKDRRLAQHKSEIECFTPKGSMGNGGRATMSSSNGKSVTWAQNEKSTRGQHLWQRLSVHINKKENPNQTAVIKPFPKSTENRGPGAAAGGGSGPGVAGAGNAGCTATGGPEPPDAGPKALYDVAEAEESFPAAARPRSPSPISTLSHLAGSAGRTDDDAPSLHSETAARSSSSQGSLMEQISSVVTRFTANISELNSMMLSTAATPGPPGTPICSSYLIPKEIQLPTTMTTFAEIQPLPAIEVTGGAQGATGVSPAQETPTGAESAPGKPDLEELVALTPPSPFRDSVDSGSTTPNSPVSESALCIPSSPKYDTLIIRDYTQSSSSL
Chain of Metabotropic glutamate receptor 5 (Rattus norvegicus) (P31424 21-1203 limits assumed): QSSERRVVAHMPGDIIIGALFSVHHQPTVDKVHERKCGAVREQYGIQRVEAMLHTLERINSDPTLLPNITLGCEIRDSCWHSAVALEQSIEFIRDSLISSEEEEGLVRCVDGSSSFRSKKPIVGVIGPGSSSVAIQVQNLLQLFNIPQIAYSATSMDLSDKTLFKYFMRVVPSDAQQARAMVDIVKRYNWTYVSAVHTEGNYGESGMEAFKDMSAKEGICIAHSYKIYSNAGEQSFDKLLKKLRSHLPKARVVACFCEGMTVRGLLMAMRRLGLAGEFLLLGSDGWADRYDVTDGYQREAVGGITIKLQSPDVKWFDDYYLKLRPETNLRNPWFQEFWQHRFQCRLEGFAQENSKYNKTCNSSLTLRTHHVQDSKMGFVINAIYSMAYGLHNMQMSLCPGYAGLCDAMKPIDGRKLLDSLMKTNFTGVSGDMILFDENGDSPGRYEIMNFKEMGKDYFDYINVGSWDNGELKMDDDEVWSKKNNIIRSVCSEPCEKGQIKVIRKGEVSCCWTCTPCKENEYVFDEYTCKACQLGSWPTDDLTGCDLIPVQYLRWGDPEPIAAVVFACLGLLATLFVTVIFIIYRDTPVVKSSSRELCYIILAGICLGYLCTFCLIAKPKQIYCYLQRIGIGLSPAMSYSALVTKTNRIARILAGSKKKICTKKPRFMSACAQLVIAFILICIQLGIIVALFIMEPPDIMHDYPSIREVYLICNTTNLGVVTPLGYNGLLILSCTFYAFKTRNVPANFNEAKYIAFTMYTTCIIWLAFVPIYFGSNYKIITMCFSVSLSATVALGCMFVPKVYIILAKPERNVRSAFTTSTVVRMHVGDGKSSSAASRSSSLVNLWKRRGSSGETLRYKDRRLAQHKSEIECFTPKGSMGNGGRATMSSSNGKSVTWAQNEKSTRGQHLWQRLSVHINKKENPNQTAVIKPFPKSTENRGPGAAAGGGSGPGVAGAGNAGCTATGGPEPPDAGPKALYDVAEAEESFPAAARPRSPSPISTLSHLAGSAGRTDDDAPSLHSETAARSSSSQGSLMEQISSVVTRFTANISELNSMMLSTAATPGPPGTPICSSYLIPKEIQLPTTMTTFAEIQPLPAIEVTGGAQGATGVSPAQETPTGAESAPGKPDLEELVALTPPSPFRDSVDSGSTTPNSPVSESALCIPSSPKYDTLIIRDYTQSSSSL
Chain of Metabotropic glutamate receptor 4 (Rattus norvegicus) (P31423 whole entry): as the sequence (P31423 whole entry) above

In general, EC10 refers to the point of the concentration-response curve where the effect stands at 10%. A low value points to an effect from little substance. The molecule `N[C@@H](CCP(=O)(O)O)C(=O)O` returned an EC10 in assay [1] of 10 nM.
As usually defined, the IC50 is the midpoint of a concentration-inhibition curve. In general, EC50 refers to the concentration that produces a half-maximal response. As to `COc1cc(NC(=O)c2ccccn2)ccc1C#Cc1ccccc1Cl`, the IC50 entry in assay [2] (hek293) was “Not Active”. Moreover, the EC50 in assay [3] was 4100 nM.
Usually EC80 stands for the point of the concentration-response curve where the effect stands at 80%. Low values mean greater potency, high ones weaker potency. Regarding `N[C@@H](Cn1oc(=O)[nH]c1=O)C(=O)O`, the EC80 in assay [4] came out at 100 nM.
As for `COc1cc(NC(=O)c2ccccn2)ccc1NC(=O)c1ccccc1Cl`, in assay [2] (read-out: IC50), the IC50 is above 30000 nM. Besides, in assay [3], the EC50 is 104 nM.
Regarding `COc1cc(C#Cc2ccccn2)ccc1NC(=O)c1ccccc1Cl`, the IC50 in assay [2] (read-out: IC50) is 24 nM. Further, the Ratio IC50 in assay [5] was 4. Besides, in assay [3], the EC50 was above 30000 nM.
